According to ChEMBL document CHEMBL1137783 (J Med Chem, 2009):

What follows are molecules tested against T1, hERG (KCNH2) (Homo sapiens, UniProt Q12809) (assay: (§1) Inhibition of human ERG channel). Conditions: human.
T1 sequence (Q12809 whole entry): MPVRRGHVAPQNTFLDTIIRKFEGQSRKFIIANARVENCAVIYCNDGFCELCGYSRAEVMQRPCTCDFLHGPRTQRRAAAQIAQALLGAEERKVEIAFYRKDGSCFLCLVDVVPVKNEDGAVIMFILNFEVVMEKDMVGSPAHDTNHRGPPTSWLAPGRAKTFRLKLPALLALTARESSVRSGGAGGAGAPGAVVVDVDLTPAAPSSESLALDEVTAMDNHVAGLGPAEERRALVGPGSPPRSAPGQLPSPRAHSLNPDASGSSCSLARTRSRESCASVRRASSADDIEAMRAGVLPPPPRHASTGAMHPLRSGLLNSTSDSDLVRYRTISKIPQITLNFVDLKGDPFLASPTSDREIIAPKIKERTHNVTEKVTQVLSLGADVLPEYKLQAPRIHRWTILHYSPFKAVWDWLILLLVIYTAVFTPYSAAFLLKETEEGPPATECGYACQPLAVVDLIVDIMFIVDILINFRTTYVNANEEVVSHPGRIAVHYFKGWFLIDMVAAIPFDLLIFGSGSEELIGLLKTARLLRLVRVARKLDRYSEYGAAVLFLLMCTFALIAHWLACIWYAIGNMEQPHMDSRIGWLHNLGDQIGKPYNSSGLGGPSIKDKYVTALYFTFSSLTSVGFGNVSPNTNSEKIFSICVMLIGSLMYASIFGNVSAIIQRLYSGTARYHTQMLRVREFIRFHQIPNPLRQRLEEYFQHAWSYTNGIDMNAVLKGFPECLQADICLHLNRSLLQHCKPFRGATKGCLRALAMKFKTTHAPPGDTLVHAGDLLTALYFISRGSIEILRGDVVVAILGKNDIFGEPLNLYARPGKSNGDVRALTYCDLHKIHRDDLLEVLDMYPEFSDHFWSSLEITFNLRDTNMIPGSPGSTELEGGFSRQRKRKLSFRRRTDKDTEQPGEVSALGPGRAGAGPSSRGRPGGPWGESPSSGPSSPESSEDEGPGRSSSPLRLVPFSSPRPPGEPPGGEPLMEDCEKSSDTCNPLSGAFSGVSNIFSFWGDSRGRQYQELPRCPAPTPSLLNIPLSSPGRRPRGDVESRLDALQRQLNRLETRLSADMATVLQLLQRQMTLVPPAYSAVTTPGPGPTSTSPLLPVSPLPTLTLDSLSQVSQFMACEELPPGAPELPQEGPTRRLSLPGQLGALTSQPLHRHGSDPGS
For `Fc1ccc2c([C@@H]3CNCC[C@H]3F)c(-c3ccsc3)[nH]c2c1`, the Ki was 1500 nM. Molecule `Fc1ccc2c([C@@H]3CNCC[C@H]3F)c(-c3cccc4ccccc34)[nH]c2c1` has a Ki of 110 nM. `CN1CCCC(c2c(-c3ccccc3)[nH]c3ccccc23)C1` (centres undefined) was tested, and the Ki was 9600 nM. For `Fc1ccc(-c2[nH]c3cc(F)ccc3c2[C@@H]2CNCC[C@H]2F)cc1`, the Ki was 1600 nM. Molecule `c1ccc(-c2[nH]c3ccccc3c2C2CCNCC2)cc1` has a Ki of 5700 nM. Molecule `Fc1ccc2c([C@@H]3CNCC[C@H]3F)c(-c3ccc4ccccc4c3)[nH]c2c1` has a Ki of 500 nM. In the case of `Fc1ccc(-c2[nH]c3cc(F)ccc3c2C2CCCNC2)cc1` (centres undefined), the Ki is reported as 1300 nM.

These molecules were tested against Voltage-gated inwardly rectifying potassium channel KCNH2 (Homo sapiens, UniProt Q12809) (assay: as §1). Conditions: not given.
Voltage-gated inwardly rectifying potassium channel KCNH2, sequence (Q12809 whole entry): as above
In the case of `CN1Cc2cncn2Cc2ccc(C#N)c(c2)Oc2ccc3c(c2)[C@@H](CC3)N2CC[C@@H]1C2=O`, the IC50 is reported as 2600 nM. `Fc1ccc2[nH]c(-c3ccccc3)c([C@@H]3CNCC[C@H]3F)c2c1` was tested, and the Ki was 7000 nM. In the case of `C[N+]1([O-])CCN(C2=Nc3cc(Cl)ccc3Nc3ccccc32)CC1`, the IC50 is reported as 133000 nM. `Cc1cc2c(s1)Nc1ccccc1N=C2N1CCN(C)CC1` [OLANZAPINE] gave an IC50 of 231 nM. Work on `c1ccc(-c2[nH]c3ccccc3c2C2CC3CCC(C2)N3)cc1` (centres undefined) yielded a Ki of 18 nM. With `CC(=O)Nc1cccc(N2CCN(CCCCNS(=O)(=O)CC3CCCCC3)CC2)c1` [NALUZOTAN] the IC50 was 3800 nM.

Same assay, conditions: human
Work on `C[N+]1([O-])CCN(C2=Nc3cc(Cl)ccc3Nc3ccccc32)CC1` yielded a pIC50 of 3.875. `Cc1cc2c(s1)Nc1ccccc1N=C2N1CCN(C)CC1` [OLANZAPINE] was tested, and the pIC50 was 6.636.

The molecules below were run against T1, hERG (KCNH2) (assay: Inhibition of human ERG channel at 300 uM). Conditions: not given.
Molecule `Cc1nnc(C(C)C)n1C1CC2CCC(C1)N2CC[C@H](NC(=O)C1CCCC1)c1ccccc1` (some centres undefined) has an inhibition at 300 µM of 18%. With `Cc1nnc(C(C)C)n1C1CC2CCC(C1)N2CC[C@H](NC(=O)CCC(F)(F)F)c1ccccc1` (some centres undefined) the inhibition at 300 µM was 14%. `Cc1nnc(C(C)C)n1C1CC2CCC(C1)N2CC[C@H](NC(=O)C1CCC1)c1ccccc1` (some centres undefined) showed an inhibition at 300 µM of 30%.

Each molecule was assayed against T1, hERG (KCNH2) (assay: Inhibition of human ERG channel at 3 uM). Conditions: not given.
`CC(C)(CO)NC(=O)[C@H]1CC[C@H](c2nc(-c3cccc(C(F)(F)F)c3)c[nH]2)CC1` showed an inhibition at 3 µM of 6%.
